Measured values from PMC8359193, “Summary of reference chemicals evaluated by the fish short‐term reproduction assay, OECD TG229, using Japanese Medaka, Oryzias latipes” (Journal of Applied Toxicology, 2021).

Legend:
[1] = target: medaka ARβ (mARβ) (Oryzias latipes, UniProt D1MV73); assay: Medaka ARβ reporter gene assay (RGA), agonist assay, HepG2 cells; type: cell-based, Japanese medaka (Oryzias latipes); details: mARβ RGA agonist assay; ND = no significant response even at the highest assay concentration (in parentheses)
medaka ARβ (mARβ), sequence (D1MV73 entry or part of it): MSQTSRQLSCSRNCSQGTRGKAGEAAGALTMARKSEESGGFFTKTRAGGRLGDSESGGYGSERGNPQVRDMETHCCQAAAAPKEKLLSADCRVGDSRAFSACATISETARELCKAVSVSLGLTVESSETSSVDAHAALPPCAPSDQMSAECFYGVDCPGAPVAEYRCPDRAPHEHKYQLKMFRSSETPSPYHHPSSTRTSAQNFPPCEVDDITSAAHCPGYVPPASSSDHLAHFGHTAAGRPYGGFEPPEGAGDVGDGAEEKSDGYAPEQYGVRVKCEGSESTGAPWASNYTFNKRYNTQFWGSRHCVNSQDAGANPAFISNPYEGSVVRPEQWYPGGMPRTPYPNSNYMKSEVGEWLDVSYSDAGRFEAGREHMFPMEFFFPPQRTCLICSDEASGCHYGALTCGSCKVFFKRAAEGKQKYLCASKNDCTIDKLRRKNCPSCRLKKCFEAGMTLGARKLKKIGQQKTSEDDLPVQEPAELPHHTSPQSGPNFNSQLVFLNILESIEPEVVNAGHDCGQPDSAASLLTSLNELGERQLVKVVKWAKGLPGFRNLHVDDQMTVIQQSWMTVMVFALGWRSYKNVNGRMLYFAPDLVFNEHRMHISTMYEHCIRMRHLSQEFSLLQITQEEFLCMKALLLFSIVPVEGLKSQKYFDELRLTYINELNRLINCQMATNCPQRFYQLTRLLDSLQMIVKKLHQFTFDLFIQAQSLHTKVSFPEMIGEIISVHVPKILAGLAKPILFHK
Procedure: To support interpretation of the biological effects observed in the FSTRA studies, in vitro RGAs using medaka Esr1 (mEsr1) and medaka ARβ (mARβ) were performed for the 16 test chemicals.
For the assays, human liver cancer cell line, HepG2, was used as the host cells, and mARβ/pcDNA3.1, MMTV‐Luc, and pRL‐TK‐Rlu were used as mARβ expression vector, reporter vector, and internal control vector, respectively.
(§1) Effect concentrations, that is, EC50 (a half maximal effective concentration) in the agonist assay and IC50 (a half maximal inhibitory concentration) in the antagonist assay, were estimated by nonlinear curve fitting (e.g., three parameters logistic regression curve) using GraphPad Prism (GraphPad Software Inc., La Jolla, CA, USA).

[2] = target: T1, medaka Esr1 (mEsr1) (Oryzias latipes, UniProt P50241); assay: Medaka Esr1 reporter gene assay (RGA), antagonist assay with 1 nM E2, HEK293 cells; type: cell-based, Japanese medaka (Oryzias latipes); details: mEsr1 RGA antagonist assay, 1 nM E2-mediated transactivation; ND = no significant response even at the highest assay concentration (in parentheses); read-out: Antagonist assay, IC50, Medaka Esr1
T1 construct: expressed in transfected cells; host or cells: HEK293 (human embryonic kidney cells), transient transfection with FuGENE HD
T1 sequence (P50241 1-620): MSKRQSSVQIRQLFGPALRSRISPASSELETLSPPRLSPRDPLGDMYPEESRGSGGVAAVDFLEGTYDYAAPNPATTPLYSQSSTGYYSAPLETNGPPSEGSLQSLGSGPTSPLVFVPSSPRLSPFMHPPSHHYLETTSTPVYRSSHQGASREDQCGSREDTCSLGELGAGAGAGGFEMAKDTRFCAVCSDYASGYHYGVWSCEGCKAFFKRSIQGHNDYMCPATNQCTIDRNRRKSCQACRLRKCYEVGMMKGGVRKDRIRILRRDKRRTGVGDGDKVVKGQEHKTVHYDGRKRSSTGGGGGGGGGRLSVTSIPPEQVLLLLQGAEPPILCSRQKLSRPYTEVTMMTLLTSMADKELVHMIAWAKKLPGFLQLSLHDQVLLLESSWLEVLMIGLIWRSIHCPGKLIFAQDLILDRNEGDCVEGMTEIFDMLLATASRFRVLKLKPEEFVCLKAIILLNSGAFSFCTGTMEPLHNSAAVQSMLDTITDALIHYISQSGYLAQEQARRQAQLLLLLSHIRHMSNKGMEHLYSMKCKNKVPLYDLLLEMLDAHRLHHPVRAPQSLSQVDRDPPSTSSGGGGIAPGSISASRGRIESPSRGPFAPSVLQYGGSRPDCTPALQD
Procedure: To support interpretation of the biological effects observed in the FSTRA studies, in vitro RGAs using medaka Esr1 (mEsr1) and medaka ARβ (mARβ) were performed for the 16 test chemicals. In the present study, Esr1 and ARβ, which are ancestral subtypes among Esrs and ARs in Japanese medaka, were selected based on the phylogenetical analyses of Esr and AR with each receptor RGAs (Ogino et al., [2016], [2018]; Tohyama et al., [2015]).
The mEsr1 RGA consisting of agonist and antagonist assays were performed according to the methods previously reported (Katsu et al., [2010]; Lange et al., [2012]; Miyagawa et al., [2014]). Briefly, human embryonic kidney cells 293 (HEK293), precultured, were seeded in 96‐well plates at 15,000 cells/well with 200 μl of culture medium, phenol‐red‐free Dulbecco's Modified Eagle's medium (ThermoFisher Scientific K.K., Tokyo, Japan) supplemented with 2‐mM L‐glutamine and 10% charcoal/dextran‐treated fetal bovine serum (Hyclone, UT, USA), and then incubated for 24 h in 5% CO2 at 37°C. After the 24‐h incubation, 20 μl of test medium containing 40 ng of medaka Esr1/pcDNA3.1, 80 ng of ERE‐TK‐Luc, and 20 ng of pRL‐TK‐Rlu and 1.2 μL of transfection reagent FuGENE HD (Promega, WI, USA) were added into each well. The assay plates were incubated for another 4 h in order to transfect the three vectors into the HEK293 cells. After the vectors were successfully transfected, in agonist assay, 24 μl of concentrated test chemical solution was applied to the test medium in the plate wells. […] After chemical treatment for 40 h, luciferase activity of the cells was measured, and the promoter activity was calculated as firefly (Photinus pyralis)‐/sea pansy (Renilla reniformis)‐luciferase activity in each well. The luciferase activities were quantified by a chemiluminescence assay with Dual‐Luciferase Reporter Assay System (Promega) in accordance with the manufacturer's instructions, and luminescence intensity of firefly and sea pansy luciferin was measured using a luminometer, TriStar LB941 (Berthold Technology, Oak Ridge, TN, USA).
as §1

`C[C@]12CC(=O)[C@H]3[C@@H](CCC4=CC(=O)CC[C@@]43C)[C@@H]1CC[C@@H]2O` [11KT, 11‐ketotestosterone] showed an EC50 [1] of 2.7 nM and an IC50 [2] greater than 100000 nM.
